Read-outs that look alike come from different tables or passages of the source.
Target: T1, 11β-HSD1 (Homo sapiens, UniProt P28845)
T1 construct: detecting cortisol generated from cortisterone by human liver microsomes; from tissue; host or cells: human liver microsomes
Assay: In vitro inhibition of 11β-HSD1, HTRF detection of cortisol generated by human liver microsomes
Type: biochemical
Conditions: for remaining activity at 0.1 µM: read-out: Average % control inhibition at 100 nM
Description: The ratio of the two emission signals is then calculated (Em665*10000/Em615).

[1] = at 100 nM, 100% indicates no inhibition, zero or below zero indicates complete inhibition, Biological Test Example B
[2] = at 100 nM, 100% indicates no inhibition, zero or below zero indicates complete inhibition, Biological Test Example C
[3] = at 100 nM, 100% indicates no inhibition, zero or below zero indicates complete inhibition, Biological Test Example D

T1 sequence (P28845 whole entry): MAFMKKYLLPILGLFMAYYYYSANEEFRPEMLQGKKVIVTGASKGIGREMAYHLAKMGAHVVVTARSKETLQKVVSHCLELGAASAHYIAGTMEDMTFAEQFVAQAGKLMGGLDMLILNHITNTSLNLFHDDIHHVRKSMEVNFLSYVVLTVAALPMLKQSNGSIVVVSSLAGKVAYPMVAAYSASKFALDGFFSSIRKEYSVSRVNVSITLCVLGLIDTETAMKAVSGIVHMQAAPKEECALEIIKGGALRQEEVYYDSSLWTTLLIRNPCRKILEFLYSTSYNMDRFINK

remaining activity at 0.1 µM | Compound | further results
2% | Cc1nnc(-c2ccc([C@H](C)N3CC[C@](CC(C)C)(c4ccccc4)OC3=O)cc2)o1 (stereo in doubt) [Example 1, (S)-6-Isobutyl-3-{1-[4-(5-methyl-[1,3,4]oxadiazol-2-yl)-phenyl]-ethyl}-6-phenyl-[1,3]oxazinan-2-one] | –
95% | Cc1nnc(-c2ccc([C@H](C)N3CC[C@](CC(C)(C)O)(c4ccccc4)OC3=O)cc2)n1C [Example 2, 3-{(S)-1-[4-(4,5-Dimethyl-4H-[1,2,4]triazol-3-yl)-phenyl]-ethyl}-(S)-6-(2-hydroxy-2-methyl-propyl)-6-phenyl-[1,3]oxazinan-2-one] | –
38% | Cc1nnc(-c2ccc([C@H](C)N3CC[C@](CC(C)(C)O)(c4ccccc4)OC3=O)cc2)o1 [Example 3, (S)-6-(2-hydroxy-2-methyl-propyl)-3-{(S)-1-[4-(5-methyl-[1,3,4]oxadiazol-2-yl)-phenyl]-ethyl}-6-phenyl-[1,3]oxazinan-2-one] | –
48% | C[C@@H](c1ccc(-c2nnco2)cc1)N1CC[C@](CC(C)(C)O)(c2ccccc2)OC1=O [Example 5, (S)-6-(2-Hydroxy-2-methyl-propyl)-3-[(S)-1-(4-[1,3,4]oxadiazol-2-yl-phenyl)-ethyl]-6-phenyl-[1,3]oxazinan-2-one] | –
40% | Cc1nc(-c2ccc([C@H](C)N3CC[C@](CC(C)(C)O)(c4ccccc4)OC3=O)cc2)no1 [Example 6, (S)-6-(2-Hydroxy-2-methyl-propyl)-3-{(S)-1-[4-(5-methyl-[1,2,4]oxadiazol-3-yl)-phenyl]-ethyl}-6-phenyl-[1,3]oxazinan-2-one] | –
50% | C[C@@H](c1ccc(-c2ncon2)cc1)N1CC[C@](CC(C)(C)O)(c2ccccc2)OC1=O [Example 7, (S)-6-(2-Hydroxy-2-methyl-propyl)-3-[(S)-1-(4-[1,2,4]oxadiazol-3-yl-phenyl)-ethyl]-6-phenyl-[1,3]oxazinan-2-one] | –
92% | C[C@@H](c1ccc(C(N)=O)cc1)N1CC[C@](CC(C)(C)O)(c2ccccc2)OC1=O [Example 8, 4-{(S)-1-[(S)-6-(2-Hydroxy-2-methyl-propyl)-2-oxo-6-phenyl-[1,3]oxazinan-3-yl]-ethyl}-benzamide] | –
20% | Cc1noc(C)c1-c1ccc([C@H](C)N2CC[C@](CC(C)(C)O)(c3ccccc3)OC2=O)cc1 [Example 10, 3-{(S)-1-[4-(3,5-Dimethyl-isoxazol-4-yl)-phenyl]-ethyl}-(S)-6-(2-hydroxy-2-methyl-propyl)-6-phenyl-[1,3]oxazinan-2-one] | –
13% | C[C@@H](c1ccc(-c2ccsc2)cc1)N1CC[C@](CC(C)(C)O)(c2ccccc2)OC1=O [Example 11, (S)-6-(2-Hydroxy-2-methyl-propyl)-6-phenyl-3-[(S)-1-(4-thiophen-3-yl-phenyl)-ethyl]-[1,3]oxazinan-2-one] | –
98% | C[C@@H](c1ccc(-c2nc3c(=O)n(C)c(=O)n(C)c3n2C)cc1)N1CC[C@](CC(C)(C)O)(c2ccccc2)OC1=O [Example 12, 8-(4-{(S)-1-[(S)-6-(2-Hydroxy-2-methyl-propyl)-2-oxo-6-phenyl-[1,3]oxazinan-3-yl]-ethyl}-phenyl)-1,3,9-trimethyl-3,9-dihydro-purine-2,6-dione] | –
-2% | C[C@@H](c1ccc(-c2ccco2)cc1)N1CC[C@](CC(C)(C)O)(c2ccccc2)OC1=O [Example 13, 3-[(S)-1-(4-Furan-2-yl-phenyl)-ethyl]-(S)-6-(2-hydroxy-2-methyl-propyl)-6-phenyl-[1,3]oxazinan-2-one] | –
10% | C[C@@H](c1ccc(-c2ccoc2)cc1)N1CC[C@](CC(C)(C)O)(c2ccccc2)OC1=O [Example 20, 3-[(S)-1-(4-Furan-3-yl-phenyl)-ethyl]-(S)-6-(2-hydroxy-2-methyl-propyl)-6-phenyl-[1,3]oxazinan-2-one] | –
– | COC(=O)COc1ccc(-c2ccc([C@H](C)N3CC[C@](CC(C)(C)O)(c4ccccc4)OC3=O)cc2)cc1 [Example B2, (4′-{(S)-1-[(S)-6-(2-Hydroxy-2-methyl-propyl)-2-oxo-6-phenyl-[1,3]oxazinan-3-yl]-ethyl}-biphenyl-4-yloxy)-acetic acid methyl ester] | remaining activity at 0.1 µM [1]: 18%
– | C[C@@H](c1ccc(-c2nnc(C(F)(F)F)s2)cc1)N1CC[C@](CC(C)(C)O)(c2ccccc2)OC1=O [Example C2, (S)-6-(2-Hydroxy-2-methyl-propyl)-6-phenyl-3-{(S)-1-[4-(5-trifluoromethyl-[1,3,4]thiadiazol-2-yl)-phenyl]-ethyl}-[1,3]oxazinan-2-one] | remaining activity at 0.1 µM [2]: 60%
– | C[C@@H](c1ccc(C2CCOC2)cc1)N1CC[C@](CC(C)(C)O)(c2ccccc2)OC1=O (stereo partly drawn) [Example C4, (S)-6-(2-Hydroxy-2-methyl-propyl)-6-phenyl-3-{(S)-1-[4-(tetrahydro-furan-3-yl)-phenyl]-ethyl}-[1,3]oxazinan-2-one] | remaining activity at 0.1 µM [2]: 30%
– | C[C@@H](c1ccc(-c2ccc(OCCO)cc2)cc1)N1CC[C@](CC(C)(C)O)(c2ccccc2)OC1=O [Example D6, 3-{(S)-1-[4′-(2-Hydroxy-ethoxy)-biphenyl-4-yl]-ethyl}-(S)-6-(2-hydroxy-2-methyl-propyl)-6-phenyl-[1,3]oxazinan-2-one] | remaining activity at 0.1 µM [3]: -12%
– | C[C@@H](c1ccc(-c2ccc(OCC(C)(C)O)cc2)cc1)N1CC[C@](CC(C)(C)O)(c2ccccc2)OC1=O [Example D7, 3-{(S)-1-[4′-(2-Hydroxy-2-methyl-propoxy)-biphenyl-4-yl]-ethyl}-(S)-6-(2-hydroxy-2-methyl-propyl)-6-phenyl-[1,3]oxazinan-2-one] | remaining activity at 0.1 µM [3]: 3%
– | (S)-6-(2-Hydroxy-2-methyl-propyl)-6-phenyl-3-((S)-1-{4-[2-(alkoxy)-pyridin-4-yl]-phenyl}-ethyl)-[1,3]oxazinan-2-one [Example E1] | Average % control inhibition at 100 nM (at 100 nM, 100% indicates no inhibition, zero or below zero indicates complete inhibition, Biological Test Example E): 25%
– | (S)-6-(2-Hydroxy-2-methyl-propyl)-6-phenyl-3-{(S)-1-[4′-(alkoxy)-biphenyl-4-yl]-ethyl}-[1,3]oxazinan-2-one [Example B1] | Average % control inhibition at 100 nM [1]: 0%

From US8637505B2, “Cyclic inhibitors of 11beta-hydroxysteroid dehydrogenase 1” (Boehringer Ingelheim International GmbH, priority 2009, dated 2014)
